Source: ChEMBL document CHEMBL4371082
Activity calls are given as the source filed them.

Columns and labels:
[1] = Antioxidant activity assessed as DPPH free radical scavenging activity at 20 uM; format: functional
[2] = Antioxidant activity assessed as ABTS radical scavenging activity at 20 uM measured at 30 sec interval over 60 mins; format: functional
Saccharomyces cerevisiae [3] = assay: Protection against 3-copies of HA-tagged human alpha-syn gene induced oxidative stress in yeast BC300 assessed as reduction in reactive oxygen species level in SG solid agar medium by dihydroethidium dye based fluorescence assay; format: functional, organism-based
Saccharomyces cerevisiae [4] = assay: Protection against 3-copies of HA-tagged human alpha-syn gene induced mitochondrial dysfunction in yeast BC300 assessed as prevention of mitochondrial membrane potential loss in SG solid agar medium by JC-10 dye based fluorescence assay; format: functional, organism-based
Saccharomyces cerevisiae [5] = assay: Protection against copy of c-myc-tagged human bax gene induced oxidative stress in yeast BC300 assessed as reactive oxygen species level in SG liquid medium by dihydroethidium dye based fluorescence assay; format: functional, organism-based
Saccharomyces cerevisiae [6] = assay: Protection against copy of c-myc-tagged human bax gene induced mitochondrial dysfunction in yeast BC300 assessed as prevention of mitochondrial membrane potential loss in SG liquid medium by JC-10 dye based fluorescence assay; format: functional, organism-based

Measured: Activity

COc1ccc([C@@H](O)CNC(=O)/C=C/c2ccccc2)cc1
active: all assays above

O=C1O[C@H]([C@@H](O)CO)C(O)=C1O
active: [1] | [2]
